Experimental data: US9956242B2, “Pharmaceutical composition for prevention or treatment of cognitive function disorders comprising spinosin” (MINISTRY OF FOOD AND DRUG SAFETY, priority 2011, dated 2018)
Read-outs that look alike come from different tables or passages of the source.

What was measured:
[1] = test system: mice with memory impairment induced by scopolamine; assay: Passive avoidance test 2 (zizyphi spinosi semen extract), scopolamine-induced memory impairment; assay type: in vivo, ICR mice; settings: control group 1, donepezil 5 mg/Kg, scopolamine 1 mg/Kg i.p.
Experimental: (§1) 6-week-old ICR mice (Orient Bio Inc., Korea), weighing about 26 to 28 g, were fed with water and food freely available for 5 days in an environment, where the temperature was about 23±2° C., the humidity was about 55±10%, and the light-dark cycle was 12 hours (Animal Laboratory at the College of Pharmacy in Kyung Hee university), and used in the experiments.
After 30 minutes, learning about the passive avoidance test apparatus was performed on the mice in drug administration groups 1 to 4 and control groups 1 to 3, respectively. Specifically, the mice were placed in the first space kept light, and after a seek time of about 20 seconds, the guillotine door was opened, and the latency time taken for the mice to move to the second space kept dark was measured.
After 24 hours since the learning was completed, the present experiment was performed on drug administration groups 1 to 4 and control groups 1 to 3, respectively. The latency tire taken for all four feet of the mouse to enter the dark space after the guillotine door was opened from the seek time of 10 seconds was measured up to 300 seconds. […]

[2] = test system: mice with memory impairment induced by scopolamine; assay: Y-maze test, scopolamine-induced memory impairment; assay type: in vivo, ICR mice; settings: control group 1, donepezil 5 mg/Kg; scopolamine 1 mg/Kg i.p.
Experimental: as §1
A Y-maze was prepared for the experiment. The Y-maze had three arms, in which each arm was 42 cm in length, 3 cm in width, and 12 cm in height, the angle formed by three arms was 120 degrees, and the Y-maze was made of black polyvinyl resin.
160 mg of the zizyphi spinosi semen extract of Example 1 was dissolved in 4 mL of 10% Tween 80 (Polyoxyethylene sorbitan monooleate: Sigma, U.S.A.) and administered to drug administration groups 1 and 2 at doses of 100 mg/Kg and 200 mg/Kg. […]
After 30 minutes, the mice in drug administration groups 1 and 2 and control groups 1 to 3 were carefully placed on one of three arms of the Y-maze, divided into A, B, and C, respectively, and allowed to freely move, and then the arms where the mice entered were recorded. At this time, only the case where the mouse’ tail fully entered the arm was recorded as the arm where the experimental animal entered, and the case where the mouse entered the same arm was also recorded. […]

[3] = test system: mice with memory impairment induced by scopolamine; assay: Morris water maze test, scopolamine-induced memory impairment; assay type: in vivo, ICR mice; settings: control group 1, donepezil 5 mg/Kg, scopolamine 1 mg/Kg i.p.
Experimental: as §1
A Morris water maze test apparatus was prepared for the experiment. Four labels such as star, square, triangle, and circle were put at regular intervals on a circular pool of 90 cm in diameter and 45 cm in height, and a platform of 29 cm in height was positioned below the star. Water was filled up to 0.5 cm from the platform (water temperature: 21±1° C.) and became cloudy with pigment such that the platform was not visible from the surface of the water.
160 mg of the zizyphi spinosi semen extract of Example 1 was dissolved in 4 mL of 10% Tween 80 (Polyoxyethylene sorbitan monooleate: Sigma, U.S.A.) and administered to drug administration groups 1 and 2 at doses of 100 mg/Kg and 200 mg/Kg. Meanwhile, donepezil (Sigma-Aldrich Chemistry Co.) was administered to control group 1 at a dose of 5 mg/Kg, and 10% Tween 80 was administered to control groups 2 and 3 at a dose of 0.15 mL.
After 30 minutes, the time taken for the mice, put down in one section of the pool, in drug administration groups 1 and 2 and control groups 1 to 3 to reach the platform was measured for 60 seconds. After 30 minutes, the time taken for the mice, repositioned to the original position, to reach the platform was measured until 60 seconds. The above-described process was repeated 4 times, and the average values were obtained. The experiment was performed in the same manner as on the first day while administering the drugs for 4 days, except that the position where the mice were first put down was changed.

[4] = test system: mice with memory impairment induced by scopolamine; settings: for Present Experiment latency time: 24 hours after learning; for Learning latency time: learning trial; for latency time increase compared to control group 2 (scopolamine only): present experiment
[5] = control group 1, donepezil 5 mg/Kg, scopolamine 1 mg/Kg i.p.

## COc1cc2c(cc1OC)C(=O)C(CC1CCN(Cc3ccccc3)CC1)C2 (stereo not drawn) [donepezil]
[1]; 24 hours after learning
  Present Experiment latency time: 140.5 ± 25.47 s
[1]; learning trial
  Learning latency time: 17.25 ± 5.365 s
[2]
  Alternation behavior (%): 65.71 ± 10.19%
  Total entry (total number of arm entries): 34.75 ± 7.265
[3]; 1st day
  Time to reach the platform: 59.34 ± 2.055 s
[3]; 2nd day
  Time to reach the platform: 48.75 ± 14.98 s
[3]; 3rd day
  Time to reach the platform: 42.80 ± 15.16 s
[3]; 4th day
  Time to reach the platform: 34.35 ± 13.80 s
[4]; [5]
  Present Experiment latency time: 151.9 ± 37.24 s
  Learning latency time: 25.13 ± 13.68 s

## COc1cc2oc(-c3ccc(O)cc3)cc(=O)c2c(O)c1[C@@H]1O[C@H](CO)[C@@H](O)[C@H](O)[C@H]1O[C@@H]1O[C@H](CO)[C@@H](O)[C@H](O)[C@H]1O [spinosin, 6-(2-O-beta-D-Glocopyranosyl-beta-D-glucopyranosyl)-5-hydroxy-2-(4-hydroxyphenyl)-7-methoxy-4H-1-benzopyran-4-one]
[4]; 2.5 mg/Kg
  latency time increase compared to control group 2 (scopolamine only): about 20 seconds
[4]; 2.5 mg/Kg, scopolamine 1 mg/Kg i.p. 30 min later
  Learning latency time: 25.88 ± 13.72 s
[4]; 2.5 mg/Kg, scopolamine 1 mg/Kg i.p., measured up to 300 seconds
  Present Experiment latency time: 59.13 ± 46.88 s
[4]; 5 mg/Kg
  latency time increase compared to control group 2 (scopolamine only): about 2.5 times
[4]; 5 mg/Kg, scopolamine 1 mg/Kg i.p. 30 min later
  Learning latency time: 29.38 ± 18.17 s
[4]; 5 mg/Kg, scopolamine 1 mg/Kg i.p., measured up to 300 seconds
  Present Experiment latency time: 107.1 ± 91.70 s
[4]; 10 mg/Kg
  latency time increase compared to control group 2 (scopolamine only): about 3 times
[4]; 10 mg/Kg, scopolamine 1 mg/Kg i.p. 30 min later
  Learning latency time: 20.50 ± 9.196 s
[4]; 10 mg/Kg, scopolamine 1 mg/Kg i.p., measured up to 300 seconds
  Present Experiment latency time: 131.3 ± 69.94 s
[4]; 20 mg/Kg
  latency time increase compared to control group 2 (scopolamine only): about 3.5 times
[4]; 20 mg/Kg, scopolamine 1 mg/Kg i.p. 30 min later
  Learning latency time: 36.00 ± 16.45 s
[4]; 20 mg/Kg, scopolamine 1 mg/Kg i.p., measured up to 300 seconds
  Present Experiment latency time: 146.0 ± 83.53 s
[4]; drug administration groups 1 to 4, 2.5 to 20 mg/Kg
  latency time compared to control group 2 (in words): significantly increased
[4]; drug administration groups 3 and 4, 10 and 20 mg/Kg
  memory and learning ability compared to control group 1 (donepezil) (in words): improved to an extent similar to that in control group 1
